Where two headings read alike, the source gives them in different places.
What was measured:
CAIX [1] = biological target: T1, CAIX (Homo sapiens, UniProt Q16790); assay: Competitive fluorescence polarization assay with FITC-labeled dual-motif ligand; conditions: 100 nM CAIX, 80 nM FITC-labeled ligand; read-out: IC50 (binding to CAIX, fluorescence polarization)
T1 construct: purchased R&D Systems (Minneapolis, MN)
Method: Fluorescence polarization (FP) experiments were performed in 21 μL of the assay buffer (12.5 mM Tris-HCl, pH 7.5, 75 mM NaCl) in transparent flat bottom 384 well Small Volume™ LoBase Microplates (Greiner Bio-One, Frickenhausen Germany). The FP reaction employed 100 nM of purified CAIX (R&D systems, Minneapolis, MN) and 80 nM FITC-labeled ligand within the assay buffer. The FP values were measured as mP units using the Safire2™ plate reader (Tecan, Morrisville, NC) with excitation at 475 nm and emission at 532 nm emission. 100 nM CAIX was incubated with serially diluted (from 8 μM to […]) concentrations of the three targeting molecules, 1 and [^63/65Cu]XYIMSR-06 for 30 min at room temperature in 384 well plates. 80 nM FITC-labeled ligand was added to each well and the reaction was incubated for 30 min at room temperature followed by FP measurements. Experiments were carried out in triplicate and the concentration resulting in 50% response (IC50) was calculated in GraphPad Prism 5 (GraphPad Software, La Jolla, CA) using the sigmoidal dose-response regression function. […]
amino)butyl)-1H-1,2,3-triazol-1-yl)butyl)-6,9-dioxa- (FP) assay as described in the experimental section. The 3,12,15,19,23-pentaazaoctacosyl)-1,4,7-triazonane-1,4- IC50 values determined for dual motif precursor 1 (Figure diyl)diacetic acid ([Al19F]XYIMSR-04) . […]
eluded at 35.5 min. MS, calculated for C H AlFN N Heart, lungs, pancreas, spleen, fat, brain, muscle, small […]
and tumor were collected. Each organ was weighed and Radiosynthesis the tissue radioactivity was measured with an automated gamma counter (1282 Compugamma CS, Pharmacia/
For convenience, Na18F in saline purchased from LKBNuclear, Inc., Mt. […] Due to was calculated by comparison with samples of a standard […]
Radiosynthesis of [Al18F]XYIMSR-04. 400μg of Data were expressed as mean ± standard deviation XYIMSR-04 in 200 μL water/Ethanol 1:1 was added to (SD). […] To this mixture, 20 μL of 2 mM AlCl3/NaOAc significance was calculated using a paired t test. […]

CAIX [2] = biological target: T1, CAIX; set-up: method as in PMID 26418876; conditions: positive control, reported value; read-out: IC50 (binding to CAIX, same method); cited from earlier work

Compound	IC50 (CAIX [1])	IC50 (CAIX [2])
CC(CCC(=O)NC(CC(=O)NC(CC(=O)NC(CCCCn1cc(CCCC(=O)Nc2nnc(S(N)(=O)=O)s2)nn1)C(=O)NCCOCCOCCN)C(=O)O)C(=O)O)(c1ccc(O)cc1)c1ccc(O)cc1 (stereo not shown) [Compound 1, reference compound]	0.0636 ± 0.0028 µM	0.0759 µM
CC(CCC(=O)N[C@@H](CC(=O)N[C@@H](CC(=O)N[C@@H](CCCCn1cc(CCCC(=O)Nc2nnc(S(N)(=O)=O)s2)nn1)C(=O)NCCOCCOCCNC(=O)C[N+]12CC[N+]34CC[N+]5(CC1)CC(=O)[O][Al-3]235([F])[O]C(=O)C4)C(=O)O)C(=O)O)(c1ccc(O)cc1)c1ccc(O)cc1 (stereo partly shown) [[Al^19F]XYIMSR-04]	0.0967 ± 0.0033 µM	–
CC(CCC(=O)N[C@@H](CC(=O)N[C@@H](CC(=O)N[C@@H](CCCCn1cc(CCCC(=O)Nc2nnc(S(N)(=O)=O)s2)nn1)C(=O)NCCOCCOCCNC(=S)Nc1ccc(CC2CN3CCN(CCN2CC(=O)O)CC(=O)[O][Cu][O]C(=O)C3)cc1)C(=O)O)C(=O)O)(c1ccc(O)cc1)c1ccc(O)cc1 (stereo partly drawn) [[^63/65Cu]XYIMSR-06, 2,2′,2″-(2-(4-(3-((11S,15S,19S)-15,19-Dicarboxy-24,24-bis(4-hydroxyphenyl)-10,13,17,21-tetraoxo-11-(4-(4-(4-oxo-4-((5-sulfamoyl-1,3,4-thiadiazol-2-yl)amino)butyl)-1H-1,2,3-triazol-1-yl)butyl)-3,6-dioxa-9,12,16,20-tetraazapentacosyl)thioureido)benzyl)-1,4,7-triazonane-1,4,7-triyl)triacetic acid]	0.156 ± 0.0043 µM	–
